According to patent publication US20230340027A1, “UBIQUITIN HIGH AFFINITY PEPTIDES, AND METHODS OF USING SAME, AND IDENTIFYING SAME” (TECHNION RESEARCH & DEVELOPMENT FOUNDATION LIMITED, priority 2020, published 2023):
Each block holds one molecule with its values, some of them ahead of it. Starred links: 1 amine or outer side, 2 acyl side, 3 side chain; linkers in the order of their positions; H or OH if unused. Positions of bridges follow the written chain, without caps; N, C: chain ends. Non-standard residues stand in square brackets, D forms with d. Residues, ends and D or L forms follow the SMILES beside them. Chains are numbered I, II in the order given. No end group written: not given here. *: point of attachment. Fluorescein(5-Mal) = O=C1OC2(c3ccc(O)cc3Oc3cc(O)ccc32)c2ccc(N3C(=O)CC(*)C3=O)cc21; CH2 = C([*:1])[*:2]

Columns and labels:
HeLa cells [1] = assay: Peptide cell uptake, live-cell confocal microscopy; assay type: cell-based; settings: 1 μM, 2 hours, confocal microscope, FITC signal
Protocol: HeLa cells (CCL-2™) were purchased from ATCC®. Dulbecco's modified Eagle's medium (DMEM), Eagle's minimum essential medium (EMEM), Fetal bovine serum (FBS), L-Glutamine, antibiotics (penicillin/streptomycin), trypsin/EDTA and phosphate-buffered saline (PBS) were purchased from biological industries. Hoechst 33342 solution (20 mM), SYTOX blue (5 mM) and Lysotracker probes were purchased from Thermo-fisher. μ-Slide 8 well ibiTreat for live-cell confocal microscopy was purchased from ibidi and polylysine hydrobromide was purchased from Sigma. Distribution of fluorescent peptides in live cells was analyzed using a confocal laser scanning microscope (Confocal Zeiss LSM 710) equipped with 40×NA 1.2 water immersion objective. During CLSM analysis the samples were kept at 37° C. in a humidified chamber.
The cells were washed with PBS buffer followed by addition of fresh phenol-free optical medium and live-cell imaging was carried out using a LSM 710 laser scanning confocal microscope equipped with an environmental control module.

tetra-Ub K48 = molecular target: T1, tetra-Ub K48 (Homo sapiens, UniProt P0CG47); assay: Kd determination of FITC-labeled peptides on immobilized biotin-tetra-UbK48 (fluorescence binding curve); settings: FITC-labeled peptide, tetra-Ub K48, one site non-cooperative binding model, triplicates; read-out: dissociation constant (Kd)
T1 construct: a Ub polymer comprises Ub monomers linked to one another at lysine (Lys) residue at position 48 (K48); made in house; host or cells: total chemical synthesis (no expression host)
Protocol: (1C) The bound peptides are released using Guanidinium-HCl (Gn·HCl) and the fluorescence intensity is measured. (1ii) A non-limiting schematic representation for measuring the dissociation constant (Kd) of FITC-labeled peptide with different concentrations. (1D) A FITC-labeled cyclic peptide with different concentrations are introduced in different wells for binding to the biotin-tetra Ub. (1E) Washing out the unbounded labeled cyclic peptide. (1F) The bound peptides are released using Gn·HCl and the fluorescence intensity is measured. […] All measurements were performed in triplicates.
To determine the dissociation constant (Kd) of labeled peptides, following immobilization step of biotin-tetra-UbK48, different concentrations of the labeled peptide were incubated. Then, the bound cyclic peptides were released with 6 M Gn·HCl, followed by fluorescence measurement (λex=480 nm and λem=525 nm). […]
First, biotin tagged tetra-UbK48 was immobilized in a constant amount (1 μg per well) in streptavidin covered 96 well plate (FIG. 1(i and ii)). […] Finally, the bound peptides were released from wells by treatment with 6 M guanidine hydrochloride (Gn·HCl) solution followed by measuring the gained fluorescence (FIG. 1(i)). The obtained values were then compared to the fluorescence of the control well containing the unlabeled peptide to calculate relative binding. […]

biotin-tetra-UbK48 = molecular target: T2, biotin-tetra-UbK48 (Homo sapiens, UniProt P0CG47); assay: Fluorescence-based competitive assay for peptide screening (relative binding vs Ub4_ix); settings: 5 molar equiv unlabeled peptide, competition with Ub4_ix-FITC; fluorescence inversely proportional to affinity
T2 construct: a Ub polymer comprises Ub monomers linked to one another at lysine (Lys) residue at position 48 (K48); made in house; host or cells: total chemical synthesis (no expression host)
Protocol: Streptavidin-coated microplate (96 well plate) was washed (3×100 μl) with HEPES buffer. Then, 1 μg of biotin-tetra-UbK48 in 100 μl of HEPES buffer was incubated in each well for 30 minutes at room temperature (RT). Additional wells were kept free of biotin-tetra-UbK48 for subsequent blank subtraction. Following a washing step, unlabeled candidate peptides, including peptide-standard (Ub4_ix), were incubated in an excess amount (5 molar equiv. relative to biotin-tetra-UbK48) for 30 minutes at RT to saturate binding to the target. […] Finally, following washing, each well was treated with 100 μl of 6 M Gn·HCl at RT for 30 minutes to release the bound peptides. Then, the solution with the released peptides was transferred to Nunc black 96-well plate and fluorescence was measured (λ excitation=480 nm and λ emission=525 nm). The obtained values were then normalized, and compared with peptide standard, while the fluorescence signal was inversely proportional to the binding affinity of the peptide. The calculations of relative change in binding were performed according to the formula: Y=−[1−(a/b)]×100, where Y is the change in the signal relative to the standard Ub4_ix (in percentage); a is signal measured for each peptide variant (in relative fluorescence units); b is signal measured for Ub4_ix.
The inventors envisioned a screening strategy to proceed through four main steps, each terminated by washings with binding buffer. First, biotin tagged tetra-UbK48 was immobilized in a constant amount (1 μg per well) in streptavidin covered 96 well plate (FIG. 1(i and ii)). Then, unlabeled candidate peptides were incubated in excess in each well to saturate binding to the target. […] Finally, the bound peptides were released from wells by treatment with 6 M guanidine hydrochloride (Gn·HCl) solution followed by measuring the gained fluorescence (FIG. 1(i)). The obtained values were then compared to the fluorescence of the control well containing the unlabeled peptide to calculate relative binding. The gained fluorescence was inversely proportional to the binding affinity of the peptide candidate. […]

HeLa cells [2] = assay: Flow cytometry annexin V-FITC/PI apoptosis / viability assay; assay type: cell-based
Protocol: Induction of apoptosis in Hela cell lines by treatment with cyclic peptides was determined using annexin V-FITC/propidium iodide(PI) apoptosis detection kit (BD Biosciences) according to the manufacturer's protocol. 2×10^5 cells/well were treated with inhibitors for 24- and 48-hours in a dose dependent manner. Apoptotic cells were determined as annexin V-FITC positive and PI negative. DMSO and MG132 were used as negative and positive controls respectively. Samples were acquired on a Becton Dickinson LSR II flow cytometer (BD Biosciences) and analyzed using Flowjo software.

Molecule: CC[C@H](C)[C@@H]1NC(=O)[C@H](Cc2c[nH]c3ccccc23)NC(=O)[C@H](Cc2c[nH]c3ccccc23)NC(=O)[C@H](CC(=O)O)NC(=O)CNC(=O)[C@H](CSCSC[C@@H]2NC(=O)[C@H](CC(=O)O)NC(=O)[C@H](CC(=O)O)NC(=O)[C@H](CC(C)C)NC(=O)[C@H](Cc3ccc(O)cc3)NC(=O)[C@H](CC(C)C)NC(=O)[C@@H](Cc3c[nH]c4ccccc34)NC(=O)CSC[C@@H](C(=O)NCC(=O)N[C@@H](C)C(=O)N[C@@H](CSC3CC(=O)N(c4ccc5c(c4)C(=O)OC54c5ccc(O)cc5Oc5cc(O)ccc54)C3=O)C(N)=O)NC(=O)[C@H]([C@@H](C)CC)NC(=O)[C@H](Cc3c[nH]c4ccccc34)NC(=O)[C@H](Cc3c[nH]c4ccccc34)NC(=O)[C@H](CC(=O)O)NC(=O)CNC2=O)NC(=O)[C@H](CC(=O)O)NC(=O)[C@H](CC(=O)O)NC(=O)[C@H](CC(C)C)NC(=O)[C@H](Cc2ccc(O)cc2)NC(=O)[C@H](CC(C)C)NC(=O)[C@@H](Cc2c[nH]c3ccccc23)NC(=O)CSC[C@@H](C(=O)NCC(=O)N[C@@H](C)C(=O)N[C@@H](CSC2CC(=O)N(c3ccc4c(c3)C(=O)OC43c4ccc(O)cc4Oc4cc(O)ccc43)C2=O)C(N)=O)NC1=O (some centres unmarked) [peptide 30] (I: {CH2CO}-[dW]LYLDDCGDWWICGAC(Fluorescein(5-Mal))-NH2 / II: {CH2CO}-[dW]LYLDDCGDWWICGAC(Fluorescein(5-Mal))-NH2; linker I:7-II:7 via CH2; thioether I:N-I:13, II:N-II:13)
- cellular uptake / permeability and localization (HeLa cells [1]): permeability and cytosolic localization
- cellular uptake / permeability and localization (HeLa cells [1]; listed as (Ub4_ix_S7C)2CH2-FITC): quickly and efficiently distributed within cells
- Kd (tetra-Ub K48): 12.3 ± 1.26 nM

- change in the relative fluorescence signal compared to Ub4_ix (improved binding) (biotin-tetra-UbK48): ~13%
Molecule: Ub4_ix_S7A: Ub4_ix analogue from Alanine scan, position 7 Ala; likely WLYLDDAGDWWICG (SEQ ID NO: 5) ({CH2CO}-WLYLDDAGDWWICG; thioether N-13 (inferred))

- change in the relative fluorescence signal compared to Ub4_ix (improved binding) (biotin-tetra-UbK48): ~57%
Molecule: 24: methylene group stapled dimer of Ub4_ix_S7C, —S—CH2—S— bridge ({CH2CO}-WLYLDDCGDWWICG; thioether N-13 (inferred); also: dimer: Cys7 joined to Cys7 of second copy by -S-CH2-S- bridge) [compound 24]
- early- and late stage apoptosis compared to Ub4_ix (HeLa cells [2]; HeLa cells, Annexin V/PI, 24 or 48 h): increased early- and late stage apoptosis
- induction of cell death (HeLa cells [2]; Hela cells, 24- and 48-hours incubation): able to induce cell death

- change in the relative fluorescence signal compared to Ub4_ix (improved binding) (biotin-tetra-UbK48): ~70%
Molecule: peptide 23: disulfide bond containing dimeric cyclic peptide of Ub4_ix_S7C ({CH2CO}-WLYLDDCGDWWICG; thioether N-13 (inferred); also: dimer joined by disulfide bond, places not given here)
